Tests used:
[1] = target: purified, reconstituted heterotrimeric complex (Homo sapiens, UniProt Q96QK1+Q9UBQ0); details: various concentrations; Mecozzi et al. 2014; cited from earlier work
[2] = system: VPS26; details: cultured primary neurons; Mecozzi et al. 2014; cited from earlier work
[3] = target: T1, VPS35 (Homo sapiens, UniProt Q96QK1); assay: Western blot of VPS35 protein levels in HECT293T cells after VPS35 plasmid transfection and/or R55; type: cell-based; details: 5 μM of R55, Western blot 72 hours after transfection, lanes 7 and 8
T1 construct: expressed in transfected cells; host or cells: HECT293T cells
Protocol: Human HECT293 cells, considered a model for human neurons, were cultured. VPS35 was delivered via plasmid to HECT293T cells under control of the constitutive EF1a promoter. Pharmacological chaperone R55 was administered to the cells as an aqueous solution at concentrations of 5 uM and 50 uM at the time of transfection. Protein levels were assessed by Western blot 72 hours after transfection.
Lipofectamine transfection protocols were used with some modifications. Briefly lipofectamine LTX was used to co-transfect Vps35 and Vps26 (Vps26a or Vps26b) plasmids into the cells in a 6 well format. 100k cells were plated in each well already containing medium with DNA-lipofectamine complexes. Empty chassis and GFP as were used as control plasmids. Amount of DNA copies introduced per well was 2.81 E+11. Cells were harvested 48 hours after transfection using RIPA buffer as described previously (Qureshi et al. 2019).
Cells were lysed in RIPA and protein were isolated as described previously (Qureshi et al. 2019; Kirby et al. 2015). Lysates from the samples were run on NuPAGE® Bis-Tris 4-12% gels, transferred onto nitrocellulose membranes using iblot and were probed with antibodies.
A primary antibody targeting VPS35 was used (ab57632, Abcam, 1:1k). Western blots were scanned using the Odyssey imaging system as described previously (Eaton et al. 2013). […]

[4] = target: T2, VPS35 (Mus musculus, UniProt Q9EQH3); details: cultured primary neurons; Mecozzi et al. 2014; cited from earlier work
T2 construct: cultured primary neurons; endogenous in cells; host or cells: cultured primary neurons

In the case of `[H]/N=C(\N)SCc1ccc(CS/C(N)=N/[H])s1` [R55], the “thermal stability (denaturation temperature of the complex)” value [1] is given as “improved thermal stability significantly”, the VPS26 protein levels [2] is given as “increased” and the “increase on endogenous VPS35 protein levels” value [3] is given as “about 50%”. The VPS35 protein levels [4] was “increased”.

Reference: patent US20230104357A1, “Combination of Retromer Pharmacological Chaperones and Exogenous Retromer for the Treatment of Alzheimer's Disease and Other Neurodegenerative Diseases and Disorders” (The Trustees of Columbia University in the City of New York, priority 2020, published 2023)
